Where a name gives a salt, the structure may show the parent alone. Read-outs that look alike come from different tables or passages of the source. Each block holds one compound with its values, some of them ahead of it.
Key:
IKK2 = molecular target: T1, IKK2 (Homo sapiens, UniProt O14920); test: IKKβ Resin Enzyme Assay (IKK2 resin); assay type: biochemical
T1 construct: made in house; host or cells: insect cells (baculovirus, pFastBac; SF9)
T1 sequence (O14920 1-756): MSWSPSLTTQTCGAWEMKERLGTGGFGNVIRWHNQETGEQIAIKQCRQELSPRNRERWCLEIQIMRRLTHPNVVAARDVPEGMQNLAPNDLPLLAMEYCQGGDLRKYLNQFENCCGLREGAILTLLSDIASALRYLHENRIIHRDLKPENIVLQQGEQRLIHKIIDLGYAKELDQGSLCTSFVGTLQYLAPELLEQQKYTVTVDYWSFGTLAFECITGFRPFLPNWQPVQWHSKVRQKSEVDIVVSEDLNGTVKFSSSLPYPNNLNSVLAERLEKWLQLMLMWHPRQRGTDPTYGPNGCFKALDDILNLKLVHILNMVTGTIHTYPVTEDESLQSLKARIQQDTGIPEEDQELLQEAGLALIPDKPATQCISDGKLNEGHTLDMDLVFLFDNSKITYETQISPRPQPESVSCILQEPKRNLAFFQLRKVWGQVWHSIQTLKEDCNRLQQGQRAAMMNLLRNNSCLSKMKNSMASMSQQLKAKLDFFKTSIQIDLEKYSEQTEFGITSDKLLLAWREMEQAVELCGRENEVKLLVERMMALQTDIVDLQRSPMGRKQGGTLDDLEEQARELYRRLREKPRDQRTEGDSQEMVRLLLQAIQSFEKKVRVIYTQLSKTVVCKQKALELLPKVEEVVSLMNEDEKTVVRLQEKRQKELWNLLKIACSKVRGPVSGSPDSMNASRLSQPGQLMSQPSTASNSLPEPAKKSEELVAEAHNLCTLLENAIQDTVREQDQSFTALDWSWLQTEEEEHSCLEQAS
Outline: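 Enzyme: human IKK2 with a C-terminal FLAG tag, baculovirus-expressed, purified as homodimer on anti-FLAG resin. It phosphorylates a biotinylated IκBα peptide with 1 μM ATP plus [γ-33P]ATP in 25 mM Hepes pH 7.6, Mg/Mn, for 30 min at 25° C. Incorporation is counted by scintillation after anion-exchange resin stop.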

[1] = Table 3, read-out: IKK Resin IC50
[2] = Table 4, read-out: IKK2 Resin IC50
[3] = Table 2, read-out: IKK Resin IC50
[4] = Table 14, read-out: IKK2 Resin IC50

SMILES: CN1CCN(c2ccc(Cl)c(C(=O)Nc3ccc4c(c3)-c3c(c(C(N)=O)nn3-c3ccc(F)cc3)CC4)n2)CC1 (as salt: salt) [Example 256, 8-({[3-chloro-6-(4-methylpiperazin-1-yl)pyridin-2-yl]carbonyl}amino)-1-(4-fluorophenyl)-4,5-dihydro-1H-benzo[g]indazole-3-carboxamide]
- melting point: 218 to 220 °C

- melting point: 181 to 182 °C
SMILES: COc1ccc(CNc2ncccc2C(=O)Nc2ccc3c(c2)-c2c(c(C(N)=O)nn2-c2ccc4c(c2)OCO4)CC3)cc1 [Example 209, 1-(1,3-benzodioxol-5-yl)-8-[({2-[(4-methoxybenzyl)amino]pyridin-3-yl}carbonyl)amino]-4,5-dihydro-1H-benzo[g]indazole-3-carboxamide]

SMILES: CSc1ccc(-n2nc(C(N)=O)c3c2-c2cc(NC(=O)c4cc5c(cc4Cl)OCO5)ccc2CC3)cc1 [Example 413, 8-{[(6-chloro-1,3-benzodioxol-5-yl)carbonyl]amino}-1-[4-(methylthio)phenyl]-4,5-dihydro-1H-benzo[g]indazole-3-carboxamide]
- IC50 (IKK2; Table 19, read-out: IKK2 Resin IC50): ≤ 1 µM

SMILES: Cc1ccc(C(=O)Nc2ccc3c(c2)-c2c(c(C(N)=O)nn2-c2ccc(S(C)(=O)=O)cc2)CC3)c(Cl)n1 [Example 138, 8-{[(2-chloro-6-methylpyridin-3-yl)carbonyl]amino}-1-[4-(methylsulfonyl)phenyl]-4,5-dihydro-1H-benzo[g]indazole-3-carboxamide]
- IC50 (IKK2; [1]): ≤ 1 µM

SMILES: NC(=O)c1nn(-c2ccc(F)cc2)c2c1CCc1ccc(NC(=O)c3ccncc3Cl)cc1-2 [Example 228, 8-[(3-chloroisonicotinoyl)amino]1-(4-fluorophenyl)-4,5-dihydro-1H-benzo[g]indazole-3-carboxamide hydrochloride]
- IC50 (IKK2; Table 6, read-out: IKK2 Resin IC 50): ≤ 1 µM

SMILES: CS(=O)(=O)c1ccc(Cl)c(C(=O)Nc2ccc3c(c2)-c2c(c(C(N)=O)nn2-c2ccc4c(c2)OCO4)CC3)c1 [Example 185, 1-(1,3-benzodioxol-5-yl)-8-{[2-chloro-5-(methylsulfonyl)benzoyl]amino}-4,5-diliydro-1H-benzo[g]indazole-3-carboxamide]
- IC50 (IKK2; [2]): ≤ 1 µM

SMILES: CS(=O)(=O)c1ccc(-n2nc(C(N)=O)c3c2-c2cc(NC(=O)c4c(F)cccc4Cl)ccc2CC3)cc1 [Example 134, 8-[(2-chloro-6-fluorobenzoyl)amino]-1-[4-(methylsulfonyl)phenyl]-4,5-dihydro-1H-benzo[g]indazole-3-carboxamide]
- IC50 (IKK2; [1]): ≤ 1 µM

SMILES: Cc1ccncc1C(=O)Nc1ccc2c(c1)-c1c(c(C(N)=O)nn1-c1ccc3c(c1)OCO3)CC2 [Example 187, 1-(1,3-benzodioxol-5-yl)-8-{[(4-methylpyridin-3-yl)carbonyl]amino}-4,5-dihydro-1H-benzo[g]indazole-3-carboxamide]
- IC50 (IKK2; [2]): ≤ 1 µM

SMILES: CS(=O)(=O)c1ccc(-n2nc(C(N)=O)c3c2-c2cc(NC(=O)c4cccc([N+](=O)[O-])c4Cl)ccc2CC3)cc1 [Example 135, 8-[(2-chloro-3-nitrobenzoyl)amino]-1-[4-(methylsulfonyl)phenyl]-4,5-dihydro-1H-benzo[g]indazole-3-carboxamide]
- IC50 (IKK2; [1]): ≤ 1 µM

SMILES: CSc1ccc(Cl)c(C(=O)Nc2ccc3c(c2)-c2c(c(C(N)=O)nn2-c2ccc(S(C)(=O)=O)cc2)CC3)c1 [Example 137, 8-{[2-chloro-5-(methylthio)benzoyl]amino}-1-[4-(methylsulfonyl)phenyl]-4,5-dihydro-1H-benzo[g]indazole-3-carboxamide]
- IC50 (IKK2; [1]): ≤ 1 µM

SMILES: CC(C)(C)NCC(=O)Nc1ccc2c(c1)-c1c(c(C(N)=O)nn1-c1ccc3c(c1)OCO3)CC2 [Example 450, 1-(1,3-benzodioxol-5-yl)-8-{[N-(tert-butyl)glycyl]amino}-4,5-dihydro-1H-benzo[g]indazole-3-carboxamide]
- IC50 (IKK2; Table 23, read-out: IKK2 Resin IC50): ≤ 1 µM

SMILES: NC(=O)c1nn(-c2ccc3c(c2)OCO3)c2c1CCc1ccc(NC(=O)c3ccc([N+](=O)[O-])cc3Cl)cc1-2 [Example 184, 1-(1,3-benzodiaxol-5-yl)-8-[(2-chloro-4-nitrobenzoyl)amino]-4,5-dihydro-1H-benzo[g]indazole-3-carboxamide]
- IC50 (IKK2; [2]): ≤ 1 µM

SMILES: Cc1ccccc1C(=O)Nc1ccc2c(c1)-c1c(c(C(N)=O)nn1-c1ccc(S(C)(=O)=O)cc1)CC2 [Example 94, 8-[(2-methylbenzoyl)amino]-1-[4-(methylsulfonyl)phenyl]-4,5-dihydro-1H-benzo[g]indazole-3-carboxamide]
- IC50 (IKK2; [3]): ≤ 1 µM

SMILES: NC(=O)c1nn(-c2cc(F)cc(F)c2)c2c1CCc1ccc(NC(=O)c3ccncc3Cl)cc1-2 [Example 355, 8-[(3-chloroisonicotinoyl)amino]-1-(3,5-difluorophenyl)-4,5-dihydro-1H-benzo[g]indazole-3-carboxamide]
- IC50 (IKK2; [4]): ≤ 1 µM

SMILES: CS(=O)(=O)c1ccc(-n2nc(C(N)=O)c3c2-c2cc(NC(=O)c4ccncc4)ccc2CC3)cc1 [Example 110, 8-(isonicotinoylamino)-1-[4-(methylsulfonyl)phenyl]-4,5-dihydro-1H-benzo[g]indazole-3-carboxamide]
- IC50 (IKK2; [3]): ≤ 1 µM

SMILES: CN(C)c1ccc(Cl)c(C(=O)Nc2ccc3c(c2)-c2c(c(C(N)=O)nn2-c2ccc4c(c2)OCO4)CC3)c1 [Example 183, 1-(1,3-benzodioxol-5-yl)-8-{[2-chloro-5-(dimethylamino)benzoyl]amino}-4,5-dihydro-1H-benzo[g]indazole-3-carboxamide]
- IC50 (IKK2; [2]): ≤ 1 µM

SMILES: CS(=O)(=O)c1ccc(-n2nc(C(N)=O)c3c2-c2cc(NC(=O)c4cc(Cl)ccc4Cl)ccc2CC3)cc1 [Example 108, 8-[(2,5-dichlorobenzoyl)amino]-1-[4-(methylsulfonyl)phenyl]-4,5-dihydro-1H-benzo[g]indazole-3-carboxamide]
- IC50 (IKK2; [3]): ≤ 1 µM

SMILES: CS(=O)(=O)c1ccc(-n2nc(C(N)=O)c3c2-c2cc(NC(=O)c4cccc(Cl)c4N)ccc2CC3)cc1 [Example 118, 8-[(2-amino-3-chlorobenzoyl)amino]-1-[4-(methylsulfonyl)phenyl]-4,5-dihydro-1H-benzo[g]indazole-3-carboxamide]
- IC50 (IKK2; [3]): ≤ 1 µM

SMILES: NC(=O)c1nn(-c2ccc(F)c(Cl)c2)c2c1CCc1ccc(NC(=O)c3ccccc3Cl)cc1-2 [Example 356, 8-[(2-chlorobenzoyl)amino]-1-(3-chloro-4-fluorophenyl)-4,5-dihydro-1H-benzo[g]indazole-3-carboxamide]
- IC50 (IKK2; [4]): ≤ 1 µM

SMILES: NC(=O)c1nn(-c2cccc(O)c2)c2c1CCc1ccc(NC(=O)c3ccncc3Cl)cc1-2 [Example 281, 8-[(3-chloroisonicotnoyl)amino]-1-(3-hydroxyphenyl)-4,5-dihydro-1H-benzo[g]indazole-3-carboxamide]
- IC50 (IKK2; Table 10, read-out: IKK2 Resin IC50): ≤ 1 µM

SMILES: NC(=O)c1nn(-c2ccc(O)cc2)c2c1CCc1ccc(NC(=O)c3cccnc3Cl)cc1-2 [Example 263, 8-{[(2-chloropyridin-3-yl)carbonyl]amino}-1-(4-hydroxyphenyl)-4,5-dihydro-1H-benzo[g]indazole-3-carboxamide]
- IC50 (IKK2; Table 8, read-out: IKK2 Resin IC50): ≤ 1 µM

SMILES: CCS(=O)(=O)c1ccc(-n2nc(C(N)=O)c3c2-c2cc(NC(=O)c4cc(NC(C)=O)ccc4Cl)ccc2CC3)cc1 [Example 392, 8-{[5-(acetylamino)-2-chlorobenzoyl]amino}-1-[4-(ethylsulfonyl)phenyl]-4,5-dihydro-1H-benzo[g]indazole-3-carboxamide]
- IC50 (IKK2; Table 18, read-out: IKK2 Resin IC50): ≤ 1 µM
